Values of other authors in patent US20070298008A1, “Method of bowel cleansing” (Braintree Laboratories, Inc., priority 2002, published 2007).
Like-named read-outs stand apart in the source and are kept apart here.

Tested on: intestines and rectum

## CC(=O)Oc1ccc(C(c2ccc(OC(C)=O)cc2)c2ccccn2)cc1 [Bisacodyl]
enema
  Time to produce a bowel movement: about 20 minutes
suppository
  Time to produce a bowel movement: about an hour
